These results are taken from patent US20040147527A1, “Methods of use of gemifloxacin compounds against fluoroquinolone resistant Streptococcus pneumoniae bacteria” (priority 1999, published 2004).

The subject of assay [1] is S. pneumoniae with reduced susceptibility to CIP. As to the kind of experiment: MIC by NCCLS microbroth dilution, 80 clinical isolates with CIP MIC ≧2 μg/ml. Type of assay: cell-based. The following applies: Streptococcus pneumoniae. The protocol:
Topoisomerase IV (parC) and DNA gyrase (gyrA) mutations were confirmed by sequencing the QRDR region of each gene. Serotyping and PFGE were performed on all isolates. […] Breakpoints have not been established for all fluoroquinolones, thus percentage resistance was not calculated.

Assay [2] relates to S. pneumoniae (CFX and TFX susceptible and resistant clinical isolates). Description: Postantibiotic effect (PAE), viable colony counting technique. Type of assay: cell-based, Streptococcus pneumoniae. As for the experimental part:
This invention was based, in part, on analyses evaluating the comparative activity of gemifloxacin against various strains of S. pneumoniae. An objective of these analyses was to determine the postantibiotic effect (herein “PAE”) of GFX in CFX and TFX susceptible and resistant S. pneumoniae.
CFX resistant clinical isolates of S. pneumoniae were collected from across Canada. MICs were determined using a microbroth dilution technique described by the NCCLS. Topisomerase IV (parC) and DNA gyrase (gyrA) mutations were confirmed by sequencing the QRDR region of each gene. Two fluoroquinolone susceptible and 8 resistant isolates (3 CFX resistant. 5 CFX, TFX resistant) were selected for study. […] Antibiotics were removed using dilution into sterile media and the PAE assessed using a viable colony counting technique.

The structures appear in SMILES notation. ≈ marks a conversion by molar mass, not a printed value.

As for `Cc1c(F)c(N2CCNC(C)C2)cc2c1c(=O)c(C(=O)O)cn2C1CC1` (centres unmarked) [GRE, grepafloxacin], in assay [1], the MIC was in the range of 0.12 to 8 µg/mL (≈ 0.334 to 22.3 µM), the MIC50 was 0.5 µg/mL (≈ 1.39 µM) and the MIC90 came to 8 µg/mL (≈ 22.3 µM).
For `C[C@@H]1CN(c2c(F)c(N)c3c(=O)c(C(=O)O)cn(C4CC4)c3c2F)C[C@H](C)N1` [SPA, sparfloxacin] the same measures were 0.25 to 32 µg/mL (≈ 0.637 to 81.5 µM), 0.5 µg/mL (≈ 1.27 µM) and 16 µg/mL (≈ 40.8 µM).
For the molecule `CO/N=C1\CN(c2nc3c(cc2F)c(=O)c(C(=O)O)cn3C2CC2)CC1CN` (racemic) [GFX, (R,S)-7-(3-aminomethyl-4-methoxyiminopyrrolidin-1-yl)-1-cyclopropyl-6-fluoro-4-oxo-1,4-dihydro-1,8-naphthyridine-3-carboxylic acid], the “mean PAE” value in assay [2] (GFX, 4× MIC for 2 hours) came to 2.7 h. Also, in assay [2] (GFX, 10× MIC for 2 hours), the “mean PAE” value was 3.8 h. Further, the “difference in duration of PAE between CFX or TFX susceptible and resistant strains” value in assay [2] (p<0.05) is recorded as “no significant difference”. In assay [1], the MIC fell in the range of 0.03 to 5 µg/mL (≈ 0.077 to 12.8 µM), the MIC50 is 0.06 µg/mL (≈ 0.154 µM) and the MIC90 was 0.25 µg/mL (≈ 0.642 µM).
Take `N[C@@H]1[C@H]2CN(c3nc4c(cc3F)c(=O)c(C(=O)O)cn4-c3ccc(F)cc3F)C[C@@H]12` [TFX, trovafloxacin]: in assay [2] (TFX susceptible isolates, 4× MIC for 2 hours), the “mean PAE” value amounted to 2.1 h. Also, in assay [2] (TFX susceptible isolates, 10× MIC for 2 hours), the “mean PAE” value was 3.2 h. In assay [1], the minimal inhibitory concentration (MIC) was 0.06 to 8 µg/mL (≈ 0.144 to 19.2 µM), the MIC50 stood at 0.5 µg/mL (≈ 1.2 µM) and the MIC90 is 4 µg/mL (≈ 9.61 µM).
For `COc1c(N2CCNC(C)C2)c(F)cc2c(=O)c(C(=O)O)cn(C3CC3)c12` (centres unmarked) [GAT, gatifloxacin], in assay [1], the MIC fell in the range of 0.25 to 8 µg/mL (≈ 0.666 to 21.3 µM), the MIC50 was found to be 0.5 µg/mL (≈ 1.33 µM) and the MIC90 worked out at 4 µg/mL (≈ 10.7 µM).
In assay [1], `C[C@H]1COc2c(N3CCN(C)CC3)c(F)cc3c(=O)c(C(=O)O)cn1c23` [LEV, levofloxacin] had an MIC of 1 to 32 µg/mL (≈ 2.77 to 88.6 µM), an MIC50 of 2 µg/mL (≈ 5.53 µM) and an MIC90 of 16 µg/mL (≈ 44.3 µM).
For `COc1c(N2C[C@@H]3CCCN[C@@H]3C2)c(F)cc2c(=O)c(C(=O)O)cn(C3CC3)c12` [MOX, moxifloxacin] the same measures were 0.12 to 4 µg/mL (≈ 0.299 to 9.96 µM), 0.25 µg/mL (≈ 0.623 µM) and 2 µg/mL (≈ 4.98 µM).
